Test results reported in patent US8093209B2, “Methods of suppressing microglial activation and systemic inflammatory responses” (Cognosci, Incorporated, priority 2002, dated 2012).

B1: RAP: 39 kD protein that blocks the binding of all known ligands to LRP (protein, UniProt P30533 35-357, looked up)
Alpha-2-macroglobulin …: YSREKNQPKPSPKRESGEEFRMEKLNQLWEKAQRLHLPPVRLAELHADLKIQERDELAWKKLKLDGLDEDGEKEARLIRNLNVILAKYGLDGKKDARQVTSNSLSGTQEDGLDDPRLEKLWHKAKTSGKFSGEELDKLWREFLHHKEKVHEYNVLLETLSRTEEIHENVISPSDLSDIKGSVLHSRHTELKEKLRSINQGLDRLRRVSHQGYSTEAEFEEPRVIDLWDLAQSANLTDKELEAFREELKHFEAKIEKHNHYQKQLEIAHEKLRHAESVGDGERVSRSREKHALLEGRTKELGYTVKKHLQDLSGRISRARHNEL

Legend:
[1] = tested on: LPS-induced serum TNFα and IL-6 in C57-BL6 mice; experiment: Intravenous LPS sepsis model, serum TNFα and IL-6 by ELISA; format: in vivo, mouse; details: peptide 6.6 mg/kg, LPS 375 μg/kg i.v.
Experimental: In these methods, 14-16 week old male C57-BL6 mice were injected with LPS (11.25 μg in 150 μl sterile isotonic saline, or 375 μg/kg) via the tail vein, and then immediately with vehicle (isotonic sterile saline) or ApoE (133-149) (at a dose of 200 μg, in 100 μl, or 6.6 mg/kg, prepared in isotonic saline). Serum samples were obtained in both LPS+vehicle and LPS+peptide groups (n=10 animals/group) at the following timepoints: time 0 (prior to injection), 1 hour, 3 hour and 24 hours after injection. Blood was collected by transcardial puncture, and allowed to clot for 30 minutes. Serum samples, obtained after centrifugation at 16,000 g for 5 minutes, were screened by solid phase ELISA for TNFα and IL-6. There were 20 animals per time point.

[2] = tested on: primary rat neuronal/glial cultures exposed to NMDA; experiment: NMDA-induced LDH release in primary neuronal-glial cultures; format: cell-based
Experimental: (§1) Primary neuronal-glial cultures were prepared from fetal Sprague-Dawley rat brains at 18 days of gestation as previously described (Pearlstein et al., 1998). Brains were harvested from 10-15 pups and dissected to separate cortex from meninges and subcortical structures using anatomical landmarks. Cortices were pooled and minced into 2 mm^3 pieces in a buffered salt solution supplemented with 20 mM HEPES buffer, pH 7.4, containing 0.25% trypsin. The tissue was incubated for 20 minutes at 37° C. in a 5% CO2/95% room air atmosphere, and washed twice with ice-cold, glutamine-free minimum essential medium (MEM; Life Technologies) containing 15 mM glucose, 5% fetal bovine serum (GIBCO), 5% horse serum (GIBCO), and 1% DNase-I (Sigma Chemical Co., St. Louis, Mo., USA). Tissue pieces were dissociated by trituration through a fire-polished 9-inch Pasteur pipette (I.D.=0.7 mm). The resultant suspension was centrifuged at 50×g for 10 min, the supernatant discarded, and the pellet resuspended in growth medium (MEM supplemented with 15 mM glucose, 5% fetal bovine serum, and 5% horse serum). The dissociated cells were plated to achieve a confluent monolayer using 4×10^5 cells per well in poly-D-lysine coated, 24-well culture plates (Falcon 3047; Becton Dickinson Co., Lincoln Park, N.J., USA). Cultures were maintained undisturbed at 37° C. in a humidified 5% CO2/95% room air atmosphere for 13-16 days prior to use.
Mature cultures (13-16 days in vitro) were washed with Mg^2+-free buffered salt solution (BSS) containing 20 mM HEPES buffer (pH7.4) and 1.8 mM CaCl2, prior to the addition of NMDA. Following NMDA exposure, cultures were maintained for 30 minutes at 37° C. in a 5% CO2/95% air atmosphere. The medium containing NMDA was then removed and replaced with MEM supplemented with 20 mM glucose. The cultures were returned to the incubator for 24 h. In all experiments, cellular damage was assessed at 24 h after exposure to NMDA by measurement of the activity of lactate dehydrogenase (LDH) released into the medium as described below. The non-competitive NMDA receptor antagonist, MK-801 (Tocris Cookson Ins., St. Louis, Mo.) at a concentration of 10 μM was used as a positive control. Preliminary dose-response studies were performed to determine the concentration of NMDA (100 μM) required to effect a near-maximal LDH release (ED90) as used in the present study.
The effect of human recombinant apoE (Panverra, Madison, Wis.) on 100 μM NMDA-induced LDH release was assessed and the dose-response curve was obtained (apoE: 0.1-10 μM final concentration). ApoE3, the most common human isoform, was added to the cultures 30 minutes prior to and removed following NMDA exposure. The effect of apoE peptide (133-149) on NMDA (100 μM or 300 μM)-induced LDH release was next assessed and the dose-response curve was obtained in a separate set of sister cultures that were simultaneously treated under one of the following conditions: (1) various doses of peptide (0.3 μM, 1 μM, 3 μM, 6 μM, 10 μM final concentration) were added to the culture immediately prior to and removed at the end of NMDA exposure; (2) no peptide, NMDA exposure; (3) no peptide, no NMDA exposure; (4) no peptide, NMDA exposure with 10 μM MK-801 for 30 minutes. The effect of a scrambled control peptide on NMDA-induced LDH release was similarly assessed.
The effect of time of administration of apoE peptide (133-149) on NMDA-induced LDH release was assessed in a separate set of sister cultures that were simultaneously treated under one of following conditions: (1) peptide was added to the culture medium 24 h prior to and removed immediately before exposure to NMDA; (2) peptide was added immediately prior to and removed at the end of the NMDA exposure; (3) peptide was added immediately following the 30 minutes NMDA exposure; (4) no peptide, NMDA exposure; (5) no peptide, no NMDA exposure. […]

[3] = tested on: primary rat neuronal/glial cultures exposed to NMDA; experiment: NMDA-induced 45Ca uptake by primary neuronal-glial cultures; format: cell-based; details: 6 μM peptide
Experimental: as §1
Cellular calcium uptake from the extracellular space was assessed using ^45CaCl2 (American Radiolabeled Chemicals, St. Louis, Mo.). After washing the cultures with Mg^2+-free BSS containing 20 mM HEPES buffer, 6 μM peptide or 10 μM MK-801 was added to each well prior to and removed at the end of 100 μM NMDA exposure. ^45Ca (0.28 μCi/ml, 0.9 μCi/well) was added to each well immediately prior to NMDA exposure. The cultures were returned to the incubator and maintained at 37° C. Twenty minutes later, the exposure medium was removed and each well was washed 3 times with ice-cold Mg^2+-free BSS containing 20 mM HEPES buffer. The cells were subsequently lysed by addition of 0.2% sodium dodecyl sulfate (SDS). An aliquot from each well was added to a liquid scintillation vial containing 10 ml Cytoscint™ (ICN, Biochemical Research Product, CA) and radioactivity was determined by scintillation counting and normalized to cell count.

[4] = tested on: mice with midline closed head injury; experiment: Murine closed head injury model (rotorod, weight, Morris Water Maze, survival); format: in vivo, mouse
Excerpt: The mice received a midline closed head injury delivered by a pneumatic impactor at a speed of 6.8 m/s.

peritoneal macrophage = experiment: Intracellular calcium in Fura-2/AM loaded peritoneal macrophage (Example 4); format: cell-based, mouse; details: preincubation with 100 molar excess of RAP
Experimental: Thioglycolate-elicited peritoneal macrophage were harvested from 8-week old C57-BL6 mice, and plated at a density of 4×10^3 cells on glass coverslips, loaded with 2.5 μM Fura-2/AM for thirty minutes, and washed with Hanks buffered solution containing […] calcium. After exposure to 5 nM human recombinant apoE3 or E4, intracellular calcium was measured by Zeiss digital microscopy.

[5] = tested on: thioglycollate-elicited peritoneal macrophages; experiment: [Ca2+]i in Fura-2/AM treated single macrophages, digital imaging microscopy (Example 10); format: cell-based, mouse; details: 1000-fold molar excess RAP, 10 mM NiCl2, or 1 μg/ml pertussis toxin 12 h
Experimental: Macrophage Harvesting. All experiments involving animals were first approved by the Duke Institutional Animal Care and Use Committee. Pathogen-free female C57BL/6 mice and ApoE deficient mice previously backcrossed 10 times to the C57BL/6 strain were obtained from the Jackson Laboratory (Bar Harbor, Me.). Thioglycollate-elicited peritoneal macrophages were harvested by peritoneal lavage using 10 ml of ice-cold Hanks' balanced salt solution containing 10 mM HEPES and 3.5 mM NaHCO3 (HHBSS), pH 7.4. The macrophages were pelleted by centrifugation at 4° C. at ˜800×g for 10 min and resuspended in RPMI 1640 media supplemented with 25 mM HEPES, 12.5 U/ml penicillin, 6.5 mg/ml streptomycin, and 5% fetal bovine serum.
Measurement of [Ca^2+]i in apoE and peptide treated macrophage. Changes in [Ca^2+]i levels in Fura-2/AM treated single cells were quantified using digital imaging microscopy in accordance with known techniques. Macrophages were plated on glass coverslips sitting in 35 mm Petri dishes at a density of 1.5×10^5 cells/cm^2, and allowed to adhere for 2 h in a humidified 5% CO2 incubator at 37° C. The non-adherent cells were aspirated and the monolayers were washed twice with HHBSS. 4 μM Fura-2/AM was incubated with the cells for thirty min in the dark at room temperature and [Ca^2+]i was subsequently measured using a digital imaging microscope in accordance with known techniques. […] To determine if signaling resulted from ligation of the ligand to LRP, cells were preincubated with a 1000-fold molar excess of RAP or 10 mM NiCl2, both of which inhibit ligand binding to LRP, for 5 min prior to stimulation with apoE or peptide. In experiments in which the involvement of a G protein was assessed, monolayers were incubated with 1 μg/ml pertussis toxin for 12 h at 37° C. and Ca^2+ measurements were made as stated above.

Molecule | serum IL-6 versus LPS+vehicle ([1]; 1 and 3 hours post-injection) | serum TNFα versus LPS+vehicle ([1]; 1 hour post-injection) | protection against NMDA (LDH release), timing ([2]; 6 μM peptide 24 hours prior to NMDA exposure) | protection against NMDA (LDH release), timing ([2]; 6 μM peptide added following NMDA exposure) | protection against NMDA (LDH release), timing ([2]; 6 μM peptide concurrent with 100 μM NMDA) | protection against NMDA-induced cell damage, truncated peptides ([2]; 6 μM peptide, 100 μM NMDA) | peptide concentration at which protection was first observed ([2]; 100 μM NMDA) [μm] | peptide concentration of maximal protection ([2]; 100 μM NMDA) [µM] | protection against NMDA toxicity (LDH release) ([2]; 300 μM NMDA) | protection against NMDA toxicity (LDH release), dose response ([2]; peptide 0.3-10 μM, 100 μM NMDA) | NMDA-induced calcium influx compared to NMDA alone ([3]; 100 μM NMDA) | calcium influx in absence of NMDA ([3]; no NMDA) | learning to find hidden platform, Morris Water Maze ([4]; 21 days after injury, p<0.05) | weight loss after closed head injury ([4]; high dose 406 ug/kg i.v.) | rotorod latency (motor deficit) after closed head injury ([4]; high dose 406 ug/kg i.v. 30 min after injury) | acute survival, Kaplan-Meier analysis ([4]; mouse, in vivo) | duration of protective effect of single dose ([4]; p<0.05) | block of ApoE-induced intracellular calcium mobilization (peritoneal macrophage) | effect of preincubation on apoE-induced [Ca2+]i increase [5]
LRVRLAS HLRKLRKRLL (LRVRLASHLRKLRKRLL; fragment of receptor-binding domain of human ApoE; listed as Homo sapiens) [ApoE (133-149), 17-mer, ApoE positions 133-149] | significantly reduced | significantly reduced | modest but significant protection | no protection | robust protection | completely blocked 100 μM NMDA-induced cell death | 3 | 6 | failed to protect cells at any peptide concentration | robust, dose-dependent protection | significantly decreased calcium influx | no direct effect on calcium influx | appeared to provide protection in learning deficits | protected animals from this motor deficit (FIG. 10A), and concomitant weight loss | protected animals from this motor deficit | significant improvement in acute survival | sustained for five days following injury |  | 
B1 |  |  |  |  |  |  |  |  |  |  |  |  |  |  |  |  |  | did not block this effect | markedly attenuated the [Ca^2+]i increases
